Measured values from PubChem BioAssay AID248 (DTP/NCI, 2004).
Toxic doses and inconclusive results are not listed. Cut-off read from the data, not from the text of the source: active = T/C of 150% or more; inactive = T/C below 125%. Square brackets hold non-standard residues; d marks the D form. Peptide text beside a SMILES is read from it. * marks the point of attachment. ξ: configuration not given here. Cbz = O=C(OCc1ccccc1)*; ξD = NC(CC(=O)O)C(=O)O

System: L1210 leukemia ip in BDF1 mice, survival T/C
Assay: NCI In Vivo Anticancer Drug Screen. Data for tumor model L1210 Leukemia (intraperitoneal) in B6D2F1 (BDF1) mice
Details: endpoint: mean survival time, higher = longer survival
Procedure, shortened: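 Mice bearing the transplanted tumor received compound or vehicle. Survival of the treated group was divided by that of the vehicle-treated control group to give the ratio.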

[1] = dose: 100.0 mg/kg/injection, schedule: Q01DX009 (ip), vehicle: saline with Tween-80
[2] = dose: 100.0 mg/kg/injection, schedule: Q04DX003 (ip), vehicle: saline with Tween-80
[3] = dose: 200.0 mg/kg/injection, schedule: Q01DX009 (ip), vehicle: saline with Tween-80
[4] = dose: 200.0 mg/kg/injection, schedule: Q04DX003 (ip), vehicle: saline with Tween-80
[5] = dose: 400.0 mg/kg/injection, schedule: Q01DX009 (ip), vehicle: saline with Tween-80
[6] = dose: 400.0 mg/kg/injection, schedule: Q04DX003 (ip), vehicle: saline with Tween-80

Measured: T/C

NC(=O)CN1C(=O)c2ccccc2C1=O
inactive: [1] 97 % of control | [2] 97 % of control | [3] 89 % of control | [4] 97 % of control | [5] 91 % of control | [6] 97 % of control

O=c1[nH]nc(CCc2ccccc2)o1
inactive: dose: 100.0 mg/kg/injection, schedule: Q01DX001 (ip), vehicle: saline 97 % of control | dose: 100.0 mg/kg/injection, schedule: Q04DX003 (ip), vehicle: saline 98 % of control | dose: 200.0 mg/kg/injection, schedule: Q01DX001 (ip), vehicle: saline 92 % of control | dose: 200.0 mg/kg/injection, schedule: Q04DX003 (ip), vehicle: saline 93 % of control | dose: 400.0 mg/kg/injection, schedule: Q01DX001 (ip), vehicle: saline 95 % of control | dose: 400.0 mg/kg/injection, schedule: Q04DX003 (ip), vehicle: saline 113 % of control

NC(CC(=O)O)C(=O)NCC(=O)O (stereo not given) (H-[ξD]-Gly-OH)
inactive: dose: 12.5 mg/kg/injection, schedule: Q04DX002 (ip), vehicle: Klucel (hydroxypropylcellulose) (HPC) 98 % of control | dose: 25.0 mg/kg/injection, schedule: Q04DX002 (ip), vehicle: Klucel (hydroxypropylcellulose) (HPC) 94 % of control | dose: 50.0 mg/kg/injection, schedule: Q04DX002 (ip), vehicle: Klucel (hydroxypropylcellulose) (HPC) 94 % of control | dose: 100.0 mg/kg/injection, schedule: Q04DX002 (ip), vehicle: Klucel (hydroxypropylcellulose) (HPC) 117 % of control

CCOC(=O)C1(C(C)C)OC2(O)C3CCCN3CC(C(C)C)N2C1=O (stereo not given)
inactive: dose: 6.25 mg/kg/injection, schedule: Q01DX009 (ip), vehicle: saline with Tween-80 100 % of control | dose: 12.5 mg/kg/injection, schedule: Q01DX009 (ip), vehicle: saline with Tween-80 113 % of control | dose: 25.0 mg/kg/injection, schedule: Q01DX009 (ip), vehicle: saline with Tween-80 100 % of control | dose: 25.0 mg/kg/injection, schedule: Q04DX003 (ip), vehicle: saline with Tween-80 94 % of control | dose: 50.0 mg/kg/injection, schedule: Q01DX009 (ip), vehicle: saline with Tween-80 103 % of control | dose: 50.0 mg/kg/injection, schedule: Q04DX003 (ip), vehicle: saline with Tween-80 103 % of control | [1] 96 % of control | [2] 94 % of control

Cc1ccccc1C(=O)c1ccccc1C
inactive: dose: 50.0 mg/kg/injection, schedule: Q01DX001 (ip), vehicle: other 118 % of control | dose: 100.0 mg/kg/injection, schedule: Q01DX001 (ip), vehicle: other 102 % of control | dose: 200.0 mg/kg/injection, schedule: Q01DX001 (ip), vehicle: other 113 % of control | dose: 400.0 mg/kg/injection, schedule: Q01DX001 (ip), vehicle: other 107 % of control

CCOC(=O)C(C(=O)OCC)C1c2ccccc2C([N+](=O)[O-])c2ccccc21 (stereo not given)
inactive: dose: 100.0 mg/kg/injection, schedule: Q01DX001 (ip), vehicle: Klucel (hydroxypropylcellulose) (HPC) 91 % of control | dose: 100.0 mg/kg/injection, schedule: Q01DX009 (ip), vehicle: Klucel (hydroxypropylcellulose) (HPC) 96 % of control | dose: 200.0 mg/kg/injection, schedule: Q01DX001 (ip), vehicle: Klucel (hydroxypropylcellulose) (HPC) 96 % of control | dose: 200.0 mg/kg/injection, schedule: Q01DX009 (ip), vehicle: Klucel (hydroxypropylcellulose) (HPC) 89 % of control | dose: 400.0 mg/kg/injection, schedule: Q01DX001 (ip), vehicle: Klucel (hydroxypropylcellulose) (HPC) 91 % of control | dose: 400.0 mg/kg/injection, schedule: Q01DX009 (ip), vehicle: Klucel (hydroxypropylcellulose) (HPC) 103 % of control

CCO/C=C/C(=O)NC(=O)OCC
inactive: [1] 95 % of control | [2] 97 % of control | [3] 91 % of control | [4] 100 % of control | [5] 101 % of control | [6] 94 % of control

CC(C)CCCC(C)C1CCC2C3CC=C4CC(OCCO)CCC4(C)C3CCC12C (stereo not given)
inactive: dose: 100.0 mg/kg/injection, schedule: Q01DX009 (ip), vehicle: other 87 % of control | dose: 200.0 mg/kg/injection, schedule: Q01DX009 (ip), vehicle: other 105 % of control

CC(C)C(NC(=O)C1CCCN1C(=O)OCc1ccccc1)C(=O)O (stereo not drawn) (Cbz-Pro-Val-OH; configuration not given here)
inactive: dose: 100.0 mg/kg/injection, schedule: Q01DX009 (ip), vehicle: saline sonified 102 % of control | dose: 100.0 mg/kg/injection, schedule: Q04DX003 (ip), vehicle: saline sonified 97 % of control | dose: 200.0 mg/kg/injection, schedule: Q01DX009 (ip), vehicle: saline sonified 92 % of control | dose: 200.0 mg/kg/injection, schedule: Q04DX003 (ip), vehicle: saline sonified 96 % of control | dose: 400.0 mg/kg/injection, schedule: Q01DX009 (ip), vehicle: saline sonified 97 % of control | dose: 400.0 mg/kg/injection, schedule: Q04DX003 (ip), vehicle: saline sonified 97 % of control

C1CCC2C[N-]CCC2C1.C1CCC2C[N-]CCC2C1.C1CCC2C[N-]CCC2C1.C1CCC2C[N-]CCC2C1.[I][Fe][I] (stereo not given)
inactive: dose: 50.0 mg/kg/injection, schedule: Q01DX009 (ip), vehicle: saline 89 % of control | dose: 100.0 mg/kg/injection, schedule: Q01DX009 (ip), vehicle: saline 94 % of control
